In patent US5219884A, “Immunosuppressant” (Taito Co., Ltd., priority 1990, dated 1993):
Converted amounts (≈) assume the structure as drawn. Where two headings read alike, the source gives them in different places.

Columns and labels:
[1] = test system: anti-sheep red blood cell antibody production in BALB/c mice; experiment: suppression of mouse anti-sheep red blood cell antibody production (PFC); type: in vivo; conditions: Experiment 1, 4 days
Procedure: (§1) Males 5- to 7-week-old BALB/c mice were immunized with sheep red blood cells (SRBC), and the spleen was resected three or four days later. By counting the plaque forming cells (PFC), suppressive effect on the production of the anti-sheep red blood cell antibody was examined as follows.
(§2) BALB/c mice were immunized with SRBC (1×10^7 cells/mouse, intravenous administration), and ISP-I in the Example 1 was administered intraperitoneally for 4 consecutive days from the day of immunization. Four days after immunization (the next day of the final administration), the spleen was resected and the anti-sheep red blood cell antibody-producing cells were determined by the direct plaque method. At the same time the body weight of the mouse, wet weight of the thymus and the spleen, and numbers of spleen cells were also determined.
as §2, with “(5×10^7” for “(1×10^7”, “the compound” for “ISP-I”, “5” for “1”, “resected,” for “resected”, “time,” for “time”

[2] = test system: human allogenic MLR (peripheral blood lymphocytes); experiment: human allogenic MLR-suppressive activity; type: cell-based
Procedure: The human allogenic MLR-suppressive activity was assayed as follows:
Human peripheral blood lymphocytes obtained by Ficoll-Paque density gradient centrifugation of normal human peripheral blood were suspended in the RPMI1640 medium supplemented with 10% FCS, placed in plastic dishes, and incubated at 37° C. in an atmosphere of 5% carbon dioxide for 2 hours. After termination of incubation, the supernatant after gentle pipetting was harvested and centrifuged (1000 rpm, for 5 minutes) to obtain plastic-nonadherent cells. The plastic-nonadherent cells were allowed to pass through a nylon-wool column to give nylon-nonadherent cells, and the concentration of the cell suspension was adjusted to 4×10^6 cells/ml by using the RPMI1640 culture medium supplemented with 10% FCS, and used as the responder cell suspension.
The plastic-adherent cells were removed from the plastic dish by vigorous pipetting after addition of phosphate buffered saline supplemented with 5% FCS and 0.02% disodium ethylenediamine-tetraacetic acid (EDTA). The plastic-adherent cells were treated with 40 μg/ml of mitomycin C at 37° C. for 60 minutes, washed three times, and suspended to the concentration of 4×10^6 cells/ml in the RPMI1640 culture medium supplemented with 10% FCS. The resultant suspension was used as the stimulator cell suspension. Fifty μl of the responder cell suspension from the donor A or C was mixed with 50 μl of the stimulator cell suspension from the donor B or D, to which 100 μl of the test substance was added, and cultured at 37° C. in the an atmosphere 5% carbon dioxide for 5 days.
After termination of the culture, 1.0 μCi/well of ^3 H-thymidine was added, and after 18 hours of culture, the cells were harvested by a cell-harvester. The radioactivity incorporated into the cells was measured by a liquid scintillation counter as the index of blastogenic response of lymphocytes in human allogenic MLR. The suppression of human allogenic MLR was evaluated by calculating the percent suppression by the following formula. [formula]

[3] = test system: IL2-dependent mouse cell line CTLL-2; experiment: suppression of IL-2 induced 3H-thymidine incorporation of CTLL-2; type: cell-based; conditions: for inhibition at 0.1 µg/mL / inhibition at 10 µg/mL / inhibition at 0.01 µg/mL / inhibition at 1 µg/mL: Mus musculus; for inhibition at 0.1 µg/mL / inhibition at 10 µg/mL / inhibition at 0.01 µg/mL: read-out: Suppression
Procedure: IL2-dependent mouse cell line CTLL-2 cells were suspended in the RPMI1640 culture medium supplemented with 30% FCS to a concentration of 2×10^5 cells/ml. The suspension (50 μl) and 50 μl of concanavalin A-stimulated rat spleen cell culture supernatants containing IL2 were added to each well of 96-well microculture plates in which 100 μl of the test substance had been placed. After culturing at 37° C. in an atmosphere of 5% carbon dioxide for 20, 44, or 68 hours, 0.5 μCi/well of ^3 H-thymidine was added, and cultured for 4 hours under the same conditions. After termination of the culture, the cells were harvested by a cell harvester, and the radioactivity incorporated into the cells was measured by a liquid scintillation counter.

[4] = body weight, wet weight of thymus and spleen, number of spleen cells in SRBC-immunized mice; type: in vivo, mouse; conditions: for Number of spleen cells: Experiment 1; for Body weight / Wet weight spleen / Wet weight thymus: mouse, in vivo
Procedure: as §1, §2
as §2, with “(5×10^7” for “(1×10^7”, “the compound” for “ISP-I”, “5” for “1”, “resected,” for “resected”, “time,” for “time”

CCCCCCC(=O)CCCCCC/C=C/CC(O)C(O)C(N)(CO)C(=O)O (stereo not drawn) [Example 1]
Number of PFC per 1 × 10^7 cell ([1]; 0.3 mg/kg/day i.p.): 1.4 ± 0.4 × 10^3 /1 × 10^7 cell
Number of PFC per spleen ([1]; 0.3 mg/kg/day i.p.): 0.9 ± 0.3 × 10^4 /spleen
Number of PFC per 1 × 10^7 cell ([1]; 1 mg/kg/day i.p.): 0.5 ± 0.2 × 10^3 /1 × 10^7 cell
Number of PFC per spleen ([1]; 1 mg/kg/day i.p.): 0.3 ± 0.1 × 10^4 /spleen
Number of PFC per 1 × 10^7 cell ([1]; 3 mg/kg/day i.p.): 0.2 ± 0.1 × 10^3 /1 × 10^7 cell
Number of PFC per spleen ([1]; 3 mg/kg/day i.p.): 0.1 ± 0.0 × 10^4 /spleen
inhibition at 0.0001 µg/mL ([2]; Homo sapiens, Lymphocyte, donor A/donor B, 0.0001 μg/ml, read-out: Suppression): 51.8%
inhibition at 0.001 µg/mL ([2]; Homo sapiens, Lymphocyte, donor A/donor B, 0.001 μg/ml, read-out: Suppression): 77.7%
inhibition at 0.01 µg/mL ([2]; Homo sapiens, Lymphocyte, donor A/donor B, 0.01 μg/ml, read-out: Suppression): 73.3%
inhibition at 0.1 µg/mL ([2]; Homo sapiens, Lymphocyte, donor A/donor B, 0.1 μg/ml, read-out: Suppression): 79%
inhibition at 1 µg/mL ([2]; Homo sapiens, Lymphocyte, donor A/donor B, 1 μg/ml, read-out: Suppression): 80.1%
inhibition at 10 pg/mL ([2]; Homo sapiens, Lymphocyte, donor C/donor D, 0.00001 μg/ml, read-out: Suppression): 37.7%
inhibition at 0.0001 µg/mL ([2]; Homo sapiens, Lymphocyte, donor C/donor D, 0.0001 μg/ml, read-out: Suppression): 44%
inhibition at 0.001 µg/mL ([2]; Homo sapiens, Lymphocyte, donor C/donor D, 0.001 μg/ml, read-out: Suppression): 67.9%
inhibition at 0.01 µg/mL ([2]; Homo sapiens, Lymphocyte, donor C/donor D, 0.01 μg/ml, read-out: Suppression): 74.8%
inhibition at 0.1 µg/mL ([2]; Homo sapiens, Lymphocyte, donor C/donor D, 0.1 μg/ml, read-out: Suppression): 79.2%
inhibition at 1 µg/mL ([2]; Homo sapiens, Lymphocyte, donor C/donor D, 1 μg/ml, read-out: Suppression): 76.5%
inhibition at 10 µg/mL ([2]; Homo sapiens, Lymphocyte, donor C/donor D, 10 μg/ml, read-out: Suppression): 88.8%
IC50 ([2]; Homo sapiens, Lymphocyte, read-out: 50%-inhibition concentration (IC50)): 0.1 ng/mL (≈ 0.249 nM)
inhibition at 10 µg/mL ([2]; Homo sapiens, Lymphocyte, read-out: Suppression): 100%
3H-thymidine uptake ([2]; donor A/donor B, 0.0001 μg/ml): 12769 cpm
3H-thymidine uptake ([2]; donor A/donor B, 0.001 μg/ml): 7190 cpm
3H-thymidine uptake ([2]; donor A/donor B, 0.01 μg/ml): 8138 cpm
3H-thymidine uptake ([2]; donor A/donor B, 0.1 μg/ml): 6922 cpm
3H-thymidine uptake ([2]; donor A/donor B, 1 μg/ml): 6690 cpm
3H-thymidine uptake ([2]; donor A/donor B, 10 μg/ml): 1082 cpm
3H-thymidine uptake ([2]; donor C/donor D, 0.00001 μg/ml): 10896 cpm
3H-thymidine uptake ([2]; donor C/donor D, 0.0001 μg/ml): 9806 cpm
3H-thymidine uptake ([2]; donor C/donor D, 0.001 μg/ml): 5646 cpm
3H-thymidine uptake ([2]; donor C/donor D, 0.01 μg/ml): 4460 cpm
3H-thymidine uptake ([2]; donor C/donor D, 0.1 μg/ml): 3613 cpm
3H-thymidine uptake ([2]; donor C/donor D, 1 μg/ml): 4167 cpm
3H-thymidine uptake ([2]; donor C/donor D, 10 μg/ml): 2018 cpm
3H-thymidine uptake ([3]; 24 hrs, 0.01 μg/ml): 6003 cpm
3H-thymidine uptake ([3]; 24 hrs, 0.1 μg/ml): 3722 cpm
3H-thymidine uptake ([3]; 24 hrs, 1 μg/ml): 3977 cpm
3H-thymidine uptake ([3]; 24 hrs, 10 μg/ml): 1968 cpm
3H-thymidine uptake ([3]; 48 hrs, 0.01 μg/ml): 19592 cpm
3H-thymidine uptake ([3]; 48 hrs, 0.1 μg/ml): 7324 cpm
3H-thymidine uptake ([3]; 48 hrs, 1 μg/ml): 4794 cpm
3H-thymidine uptake ([3]; 48 hrs, 10 μg/ml): 1649 cpm
3H-thymidine uptake ([3]; 72 hrs, 0.01 μg/ml, control 78515 cpm): 56688 cpm
3H-thymidine uptake ([3]; 72 hrs, 0.1 μg/ml, control 78515 cpm): 2436 cpm
3H-thymidine uptake ([3]; 72 hrs, 1 μg/ml, control 78515 cpm): 846 cpm
3H-thymidine uptake ([3]; 72 hrs, 10 μg/ml, control 78515 cpm): 478 cpm
inhibition at 0.1 µg/mL ([3]; CTLL-2, 24 h): 45.5%
inhibition at 10 µg/mL ([3]; CTLL-2, 72 h): 100%
inhibition at 0.01 µg/mL ([3]; CTLL-2, 24 hrs, 0.01 μg/ml): 10.3%
inhibition at 1 µg/mL ([3]; CTLL-2, 24 hrs, 1 μg/ml): 41.5%
inhibition at 10 µg/mL ([3]; CTLL-2, 24 hrs, 10 μg/ml): 72.5%
inhibition at 0.01 µg/mL ([3]; CTLL-2, 48 hrs, 0.01 μg/ml): 22.7%
inhibition at 0.1 µg/mL ([3]; CTLL-2, 48 hrs, 0.1 μg/ml): 72.2%
inhibition at 1 µg/mL ([3]; CTLL-2, 48 hrs, 1 μg/ml): 82.4%
inhibition at 10 µg/mL ([3]; CTLL-2, 48 hrs, 10 μg/ml): 95.1%
inhibition at 0.01 µg/mL ([3]; CTLL-2, 72 hrs, 0.01 μg/ml, control 78515 cpm): 28%
inhibition at 0.1 µg/mL ([3]; CTLL-2, 72 hrs, 0.1 μg/ml, control 78515 cpm): 97.7%
inhibition at 1 µg/mL ([3]; CTLL-2, 72 hrs, 1 μg/ml, control 78515 cpm): 99.8%
Number of spleen cells ([4]; 0.3 mg/kg/day): 1.4 ± 0.3 × 10^8 cell
Number of spleen cells ([4]; 1 mg/kg/day): 1.3 ± 0.4 × 10^8 cell
Number of spleen cells ([4]; 3 mg/kg/day): 1.3 ± 0.2 × 10^8 cell
Body weight ([4]; 0.3 mg/kg/day): 23 ± 2 g
Wet weight spleen ([4]; 0.3 mg/kg/day): 202 ± 4 mg
Wet weight thymus ([4]; 0.3 mg/kg/day): 48 ± 5 mg
Body weight ([4]; 1 mg/kg/day): 23 ± 1 g
Wet weight spleen ([4]; 1 mg/kg/day): 206 ± 32 mg
Wet weight thymus ([4]; 1 mg/kg/day): 50 ± 1 mg
Body weight ([4]; 3 mg/kg/day): 19 ± 1 g
Wet weight spleen ([4]; 3 mg/kg/day): 137 ± 17 mg
Wet weight thymus ([4]; 3 mg/kg/day): 25 ± 14 mg
